PubChem BioAssay (NCI)
Values joined by “and” are separate entries in the source; they are usually repeats but may differ in a detail not shown here. Equal values may be shown once.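 Compound exposure: 48 hours, 5 concentrations, 96-well plates. GI50 = concentration required for 50% inhibition of growth. TGI: concentration producing complete growth inhibition.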

How the values were obtained:
Assay in all cases: NCI tumour cell line growth inhibition, 48 h
A498 renal = system: A498 renal
A549 NSCLC = system: A549 NSCLC
ACHN renal = system: ACHN renal
BT-549 breast = system: BT-549 breast
CCRF-CEM leukemia = system: CCRF-CEM leukemia
COLO 205 colon = system: COLO 205 colon
DU-145 prostate = system: DU-145 prostate
EKVX NSCLC = system: EKVX NSCLC
HCC-2998 colon = system: HCC-2998 colon
HCT-15 colon = system: HCT-15 colon
HL-60(TB) leukemia = system: HL-60(TB) leukemia
HOP-62 NSCLC = system: HOP-62 NSCLC
HOP-92 NSCLC = system: HOP-92 NSCLC
IGROV1 ovarian = system: IGROV1 ovarian
KM12 colon = system: KM12 colon
LOX IMVI melanoma = system: LOX IMVI melanoma
M14 melanoma = system: M14 melanoma
MALME-3M melanoma = system: MALME-3M melanoma
MDA-MB-231 breast = system: MDA-MB-231 breast
MDA-MB-435 = system: MDA-MB-435
MOLT-4 leukemia = system: MOLT-4 leukemia
NCI-H226 lung = system: NCI-H226 lung
NCI-H23 lung = system: NCI-H23 lung
NCI-H460 lung = system: NCI-H460 lung
NCI-H522 lung = system: NCI-H522 lung
NCI/ADR-RES ovarian = system: NCI/ADR-RES ovarian
OVCAR-3 ovarian = system: OVCAR-3 ovarian
OVCAR-4 ovarian = system: OVCAR-4 ovarian
OVCAR-5 ovarian = system: OVCAR-5 ovarian
OVCAR-8 ovarian = system: OVCAR-8 ovarian
PC-3 prostate = system: PC-3 prostate
RPMI-8226 leukemia = system: RPMI-8226 leukemia
RXF 393 renal = system: RXF 393 renal
SF-295 CNS = system: SF-295 CNS
SK-MEL-2 melanoma = system: SK-MEL-2 melanoma
SK-MEL-28 melanoma = system: SK-MEL-28 melanoma
SK-MEL-5 melanoma = system: SK-MEL-5 melanoma
SNB-19 CNS = system: SNB-19 CNS
SR leukemia = system: SR leukemia
SW-620 colon = system: SW-620 colon
TK-10 renal = system: TK-10 renal
UACC-257 melanoma = system: UACC-257 melanoma
UACC-62 melanoma = system: UACC-62 melanoma
UO-31 renal = system: UO-31 renal
CAKI-1 renal = system: CAKI-1 renal
HT29 colon = system: HT29 colon
K-562 leukemia = system: K-562 leukemia
MCF7 breast = system: MCF7 breast
SF-268 CNS = system: SF-268 CNS
SF-539 CNS = system: SF-539 CNS
T-47D breast = system: T-47D breast
SK-OV-3 ovarian = system: SK-OV-3 ovarian
SNB-75 CNS = system: SNB-75 CNS

CC[C@@]1(O)C(=O)OCc2c1cc1n(c2=O)Cc2c-1nc1ccc(O)cc1c2CC[Si](C)(C)C
TGI (A498 renal): 27.9 nM
TGI (A549 NSCLC): 240 nM and 167 nM
TGI (ACHN renal): 363 nM
TGI (BT-549 breast): 4090 nM
TGI (CCRF-CEM leukemia): 464 nM
TGI (COLO 205 colon): 1160 nM
TGI (DU-145 prostate): 1.29 nM
GI50 (EKVX NSCLC): 18.1 nM
TGI (HCC-2998 colon): 64.1 nM and 60.1 nM
TGI (HCT-15 colon): 95000 nM
TGI (HL-60(TB) leukemia): < 1 nM
TGI (HOP-62 NSCLC): 10.6 nM
TGI (HOP-92 NSCLC): 30.8 nM
TGI (IGROV1 ovarian): 202 nM
TGI (KM12 colon): 65.9 nM
TGI (LOX IMVI melanoma): 114 nM
TGI (M14 melanoma): 15.1 nM
TGI (MALME-3M melanoma): 1410 nM
GI50 (MDA-MB-231 breast): 120 nM
TGI (MDA-MB-231 breast): 12900 nM
TGI (MDA-MB-435): 495 nM and 887 nM
TGI (MOLT-4 leukemia): 2.21 nM
GI50 (NCI-H226 lung): < 1 nM
TGI (NCI-H23 lung): 10.3 nM and 11.8 nM
TGI (NCI-H460 lung): 4.45 nM and 11.7 nM
TGI (NCI-H522 lung): 299 nM
TGI (NCI/ADR-RES ovarian): 1840 nM and 1560 nM
TGI (OVCAR-3 ovarian): 127 nM
TGI (OVCAR-4 ovarian): 53.8 nM
TGI (OVCAR-5 ovarian): 267 nM and 375 nM
TGI (OVCAR-8 ovarian): 197 nM
GI50 (PC-3 prostate): 52.5 nM
TGI (PC-3 prostate): > 100000 nM
TGI (RPMI-8226 leukemia): 348 nM
TGI (RXF 393 renal): 49.4 nM and 62.5 nM
TGI (SF-295 CNS): 29.6 nM
GI50 (SK-MEL-2 melanoma): 74.2 nM
TGI (SK-MEL-2 melanoma): 576 nM and 1170 nM
GI50 (SK-MEL-28 melanoma): 107 nM
TGI (SK-MEL-28 melanoma): > 100000 nM
TGI (SK-MEL-5 melanoma): 123 nM and 43.8 nM
TGI (SNB-19 CNS): > 100000 nM
TGI (SR leukemia): < 1 nM
TGI (SW-620 colon): > 100000 nM
TGI (TK-10 renal): 693 nM and 749 nM
TGI (UACC-257 melanoma): 136 nM and 44.7 nM
TGI (UACC-62 melanoma): 17.2 nM and 14.9 nM
TGI (UO-31 renal): 123 nM and 79.5 nM

Nc1nc(Nc2ccccc2)sc1C(=O)c1ccc(Cl)cc1
TGI (BT-549 breast): > 100000 nM
TGI (CAKI-1 renal): 27400 nM
TGI (CCRF-CEM leukemia): > 100000 nM
TGI (COLO 205 colon): > 100000 nM
TGI (EKVX NSCLC): > 100000 nM
TGI (HCT-15 colon): > 100000 nM
TGI (HL-60(TB) leukemia): > 100000 nM
TGI (HOP-92 NSCLC): > 100000 nM
TGI (HT29 colon): > 100000 nM
TGI (IGROV1 ovarian): > 100000 nM
TGI (K-562 leukemia): > 100000 nM
TGI (KM12 colon): > 100000 nM
TGI (M14 melanoma): > 100000 nM
TGI (MCF7 breast): > 100000 nM
TGI (MDA-MB-231 breast): > 100000 nM
TGI (MOLT-4 leukemia): > 100000 nM
TGI (NCI-H23 lung): > 100000 nM
TGI (OVCAR-4 ovarian): 3010 nM
TGI (OVCAR-5 ovarian): > 100000 nM
TGI (RXF 393 renal): 5170 nM
TGI (SF-268 CNS): > 100000 nM
TGI (SF-295 CNS): > 100000 nM
TGI (SF-539 CNS): > 100000 nM
TGI (SK-MEL-2 melanoma): > 100000 nM
TGI (SK-MEL-28 melanoma): > 100000 nM
TGI (SNB-19 CNS): > 100000 nM
TGI (SR leukemia): > 100000 nM
TGI (SW-620 colon): > 49000 nM
TGI (T-47D breast): > 100000 nM
TGI (TK-10 renal): > 100000 nM

N=C(N)c1ccc(-c2ccc(-c3ccc(Cl)cc3)o2)o1
GI50 (A498 renal): 2120 nM
TGI (A498 renal): 7590 nM
GI50 (ACHN renal): 1890 nM
TGI (ACHN renal): 3510 nM
GI50 (BT-549 breast): 5920 nM
TGI (BT-549 breast): 29600 nM
GI50 (DU-145 prostate): 1750 nM
TGI (DU-145 prostate): 3270 nM
GI50 (MDA-MB-435): 1360 nM
TGI (MDA-MB-435): 2690 nM
GI50 (NCI-H226 lung): 2190 nM
TGI (NCI-H226 lung): 6460 nM
GI50 (OVCAR-3 ovarian): 1830 nM
TGI (OVCAR-3 ovarian): 3430 nM
GI50 (PC-3 prostate): 1810 nM
TGI (PC-3 prostate): 3380 nM
GI50 (RPMI-8226 leukemia): 2120 nM
TGI (RPMI-8226 leukemia): 4780 nM
GI50 (SF-295 CNS): 1830 nM
TGI (SF-295 CNS): 3320 nM
GI50 (SK-MEL-5 melanoma): 1810 nM
TGI (SK-MEL-5 melanoma): 3210 nM
GI50 (SK-OV-3 ovarian): 1790 nM
TGI (SK-OV-3 ovarian): 3350 nM
GI50 (SNB-75 CNS): 1500 nM
TGI (SNB-75 CNS): 2860 nM
GI50 (TK-10 renal): 2070 nM
TGI (TK-10 renal): 3570 nM
